Two compounds from patent US20120258975A1, “Potent Small Molecule Inhibitors of Autophagy, and Methods of Use Thereof” (Shanghai Institute of Organic Chemistry, priority 2009, published 2012) can be followed below.

The subject of data set [1] is ubiquitin-proteasomal degradation pathway. Nature of the data set: Proteasomal degradation pathway (pEGFP-CL1, polyubiquitination). Type of data set: cell-based. The procedure:
In addition, the effect of MBCQ on proteasomal degradation pathway using pEGFP-CL1, a GFP fusion with a short-lived peptide was determined (Bence, N. F., Sampat, R. M., and Kopito, R. R. (2001). Impairment of the ubiquitin-proteasome system by protein aggregation. Science 292, 1552-1555).

In data set [2] the test system is LC3. The data set is described as follows: LC3 western blotting in MEF cells. It is filed as cell-based, mouse. Conditions: 4 hours, 10 μM, rapamycin 0.2 μM. As to the method:
FIG. 5 depicts results related to showing that active derivatives of MBCQ reduce the levels of LC3II in MEF cells. […] The cell lysates were collected for western blotting using anti-LC3 antibody. B, Electron microscopy confirmation of the autophagy inhibitory effects of C43 (spautin) on MEF cells. MEF cells were treated with vehicle control (1‰ DMSO), and other indicated compounds for 4 h. Rapamycin (0.2 μM) and C43 (spautin) (10 μM). Then the cells were fixed with glutaraldehyde and prepared the sample for EM assay. Bar, 1:11,000. Arrows indicate double and multi-membrane autophagosomic vesicles. N: nucleus.
To confirm the inhibitory activity on autophagy, mouse embryo fibroblasts (MEF) cells were treated with C29, C43 or C71 for 4 hours in the presence or absence of rapamycin and the levels of autophagy were determined by LC3 western blotting. […] (FIG. 5A).
A general note: A western blot detects proteins with antibodies after separation by electrophoresis.

For data set [3], the system named is MDCK cells. Nature of the data set: MDCK cells under glucose-free condition. It is filed as cell-based, canine. From the text:
Hs578Bst cells, established from normal tissue peripheral to the tumor and is myoepithelial in origin, also were not sensitive to spautin (FIGS. 12C and 12D).

In data set [4] the target is USP10 and USP13 interaction (Homo sapiens, UniProt Q14694+Q92995). Nature of the data set: GFP-USP10 / Myc-USP13 co-immunoprecipitation in 293T cells.

Each structure is given as a SMILES string.

Chain of USP10 and USP13 interaction (Q14694 whole entry): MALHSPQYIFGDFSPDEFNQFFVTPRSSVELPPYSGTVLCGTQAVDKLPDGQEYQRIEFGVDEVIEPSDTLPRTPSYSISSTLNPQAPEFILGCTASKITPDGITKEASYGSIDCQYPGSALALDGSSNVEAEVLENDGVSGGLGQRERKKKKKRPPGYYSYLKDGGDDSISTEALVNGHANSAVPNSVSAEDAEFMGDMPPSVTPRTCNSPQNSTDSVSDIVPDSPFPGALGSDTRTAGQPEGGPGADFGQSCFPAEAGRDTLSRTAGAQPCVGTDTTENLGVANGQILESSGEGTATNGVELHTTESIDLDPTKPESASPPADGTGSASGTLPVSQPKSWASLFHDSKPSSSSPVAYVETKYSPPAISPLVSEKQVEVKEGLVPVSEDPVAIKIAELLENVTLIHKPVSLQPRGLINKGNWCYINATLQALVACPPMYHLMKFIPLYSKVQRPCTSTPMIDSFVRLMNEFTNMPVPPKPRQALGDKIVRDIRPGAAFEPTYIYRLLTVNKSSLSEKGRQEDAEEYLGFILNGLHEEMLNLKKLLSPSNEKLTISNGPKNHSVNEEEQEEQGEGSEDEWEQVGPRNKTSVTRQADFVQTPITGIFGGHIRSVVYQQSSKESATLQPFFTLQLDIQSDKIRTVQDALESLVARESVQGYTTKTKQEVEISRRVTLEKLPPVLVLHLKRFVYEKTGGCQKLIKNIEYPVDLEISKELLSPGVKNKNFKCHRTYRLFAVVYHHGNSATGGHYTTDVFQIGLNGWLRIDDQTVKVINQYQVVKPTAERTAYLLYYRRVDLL
Chain of USP10 and USP13 interaction (Q92995 whole entry): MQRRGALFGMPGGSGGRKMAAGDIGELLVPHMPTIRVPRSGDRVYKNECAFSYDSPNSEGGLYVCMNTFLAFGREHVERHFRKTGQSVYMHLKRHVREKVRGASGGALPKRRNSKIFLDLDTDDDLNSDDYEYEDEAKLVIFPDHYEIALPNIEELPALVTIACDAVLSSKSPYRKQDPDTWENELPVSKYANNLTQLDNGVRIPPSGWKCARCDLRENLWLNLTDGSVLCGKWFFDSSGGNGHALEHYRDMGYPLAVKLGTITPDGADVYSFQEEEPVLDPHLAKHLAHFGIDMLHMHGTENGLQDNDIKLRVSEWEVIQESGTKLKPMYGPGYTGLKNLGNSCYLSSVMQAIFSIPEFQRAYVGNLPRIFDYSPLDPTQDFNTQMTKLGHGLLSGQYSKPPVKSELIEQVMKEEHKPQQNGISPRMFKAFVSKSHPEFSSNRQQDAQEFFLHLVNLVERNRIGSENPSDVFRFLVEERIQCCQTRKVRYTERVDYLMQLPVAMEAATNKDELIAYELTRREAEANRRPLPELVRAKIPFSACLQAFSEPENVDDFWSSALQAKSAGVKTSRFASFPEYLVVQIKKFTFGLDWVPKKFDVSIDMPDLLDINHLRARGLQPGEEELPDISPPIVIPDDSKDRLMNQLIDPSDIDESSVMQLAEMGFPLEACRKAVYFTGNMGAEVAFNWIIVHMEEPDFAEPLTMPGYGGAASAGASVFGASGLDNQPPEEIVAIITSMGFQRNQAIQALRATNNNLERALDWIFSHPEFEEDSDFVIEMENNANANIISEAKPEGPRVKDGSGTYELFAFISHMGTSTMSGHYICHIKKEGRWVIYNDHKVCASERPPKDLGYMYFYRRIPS

Consider `Clc1ccc2ncnc(NCc3ccc4c(c3)OCO4)c2c1` [MBCQ], for which, in data set [1], the “general levels of polyubiquitination” value is recorded as “no effect on the general levels of polyubiquitination” and the “levels of pEGFP-CL1” value was “does not affect the levels of pEGFP-CL1”.

For `Fc1ccc(CNc2ncnc3ccc(F)cc23)cc1` [C43, 6-fluoro-N-(4-fluorobenzyl)quinazolin-4-amine], the “autophagy induced by rapamycin (LC3 western blotting)” value in data set [2] is listed as “inhibited autophagy induced by rapamycin”. In addition, the apoptosis result in data set [3] was “did not induce apoptosis”. This compound also returned a growth suppression in data set [3] (10 μM of spautin for 48 hrs) of approximately 25%. In addition, in data set [4], the “GFP-USP10 and Myc-USP13 interaction” value is listed as “the interaction was inhibited”.
